From ChEMBL document CHEMBL4346729, “The discovery of novel 3-aryl-indazole derivatives as peripherally restricted pan-Trk inhibitors for the treatment of pain” (Bioorg Med Chem Lett, 2019)

What was measured:
[1] = molecular target: Casein kinase I isoform delta (Homo sapiens) (UniProt P48730); test: Inhibition of CK1-delta (unknown origin) at 20 nM using phosphatidylserine as substrate incubated for 60 mins in presence of [33P]-ATP by scintillation counting method
[2] = molecular target: Protein kinase C beta type (Homo sapiens) (UniProt P05771); test: Inhibition of recombinant human full length N-terminal GST/His6-tagged PKC-beta2 (M1 to S673) expressed in Sf9 insect cells at 20 nM using phosphatidylserine as substrate incubated for 60 mins in presence of [33P]-ATP by scintillation counting method
Homo sapiens = organism: Homo sapiens; test: Inhibition of PKA (unknown origin) at 20 nM using phosphatidylserine as substrate incubated for 60 mins in presence of [33P]-ATP by scintillation counting method
Rattus norvegicus [3] = test: Unbound drug level in plasma of CFA induced Sprague-Dawley rat at 20 mg/kg, po after 1 hr; type: ADME, organism-based; settings: in vivo
[4] = molecular target: Ribosomal protein S6 kinase alpha-1 (Homo sapiens) (UniProt Q15418); test: Inhibition of RPS6KA1 (unknown origin) at 20 nM using phosphatidylserine as substrate incubated for 60 mins in presence of [33P]-ATP by scintillation counting method
[5] = molecular target: Calcium/calmodulin-dependent protein kinase type II subunit delta (Homo sapiens) (UniProt Q13557); test: Inhibition of CAMK2D (unknown origin) at 20 nM using calmodulin as substrate incubated for 60 mins in presence of [33P]-ATP by scintillation counting method
Rattus norvegicus [6] = test: Unbound drug level in plasma of CFA induced Sprague-Dawley rat at 0.8 mg/kg, po after 1 hr; type: ADME, organism-based; settings: in vivo
[7] = Unbound drug level in brain of CFA induced Sprague-Dawley rat at 0.8 mg/kg, po after 1 hr; type: ADME, organism-based; settings: in vivo, BLD = below limit of detection
[8] = molecular target: Ribosomal protein S6 kinase beta-1 (Homo sapiens) (UniProt P23443); test: Inhibition of recombinant human N-terminal GST/His6-tagged S6K internal ([…]) expressed in Sf9 insect cells at 20 nM using phosphatidylserine as substrate incubated for 60 mins in presence of [33P]-ATP by scintillation counting method
[9] = Apparent permeability from apical to basolateral side in MDCK cells at 50 umol/L at pH 7.4 incubated for 30 mins by LC-MS/MS analysis; type: ADME, cell-based, Canis lupus familiaris; settings: dog
[10] = Cmax in Sprague-Dawley rat at 5 mg/kg, po; type: ADME, organism-based; design: dose 5 mg/kg, route oral; settings: in vivo
[11] = molecular target: Tyrosine-protein kinase Lck (Homo sapiens) (UniProt P06239); test: Inhibition of recombinant human full length N-terminal GST/His6-tagged LCK (M1 to P509) expressed in Sf9 insect cells at 20 nM using phosphatidylserine as substrate incubated for 60 mins in presence of [33P]-ATP by scintillation counting method
[12] = Intrinsic clearance in human liver microsomes; type: ADME, Microsome; settings: read-out: CLH

Chain of Casein kinase I isoform delta (Homo sapiens) (P48730 whole entry, looked up, canonical isoform): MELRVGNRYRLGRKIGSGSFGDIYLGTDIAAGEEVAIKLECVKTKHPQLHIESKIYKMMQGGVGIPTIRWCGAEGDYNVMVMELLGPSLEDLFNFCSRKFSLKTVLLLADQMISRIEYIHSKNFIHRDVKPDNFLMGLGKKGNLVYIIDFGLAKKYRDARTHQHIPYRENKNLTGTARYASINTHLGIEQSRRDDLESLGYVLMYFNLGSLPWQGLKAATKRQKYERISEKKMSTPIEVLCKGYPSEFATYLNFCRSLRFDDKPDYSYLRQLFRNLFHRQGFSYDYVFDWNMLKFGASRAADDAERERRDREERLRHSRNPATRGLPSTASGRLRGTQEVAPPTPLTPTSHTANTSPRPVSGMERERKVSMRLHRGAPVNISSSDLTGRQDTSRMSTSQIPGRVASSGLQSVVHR
Chain of Ribosomal protein S6 kinase beta-1 (Homo sapiens) (P23443 whole entry, looked up): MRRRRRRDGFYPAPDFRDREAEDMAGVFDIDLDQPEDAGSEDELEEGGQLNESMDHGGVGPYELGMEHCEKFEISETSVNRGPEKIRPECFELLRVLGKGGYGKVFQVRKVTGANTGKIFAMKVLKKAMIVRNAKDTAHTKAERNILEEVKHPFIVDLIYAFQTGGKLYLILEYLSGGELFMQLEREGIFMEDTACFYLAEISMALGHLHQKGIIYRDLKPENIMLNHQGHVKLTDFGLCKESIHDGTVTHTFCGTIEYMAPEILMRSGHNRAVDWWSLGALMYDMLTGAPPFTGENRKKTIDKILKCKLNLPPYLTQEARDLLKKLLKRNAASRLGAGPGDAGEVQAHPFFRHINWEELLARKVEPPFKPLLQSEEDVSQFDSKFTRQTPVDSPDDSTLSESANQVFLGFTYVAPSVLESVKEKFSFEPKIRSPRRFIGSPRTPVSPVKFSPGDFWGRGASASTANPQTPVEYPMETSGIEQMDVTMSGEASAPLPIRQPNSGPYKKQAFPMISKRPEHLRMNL
Chain of Calcium/calmodulin-dependent protein kinase type II subunit delta (Homo sapiens) (Q13557 whole entry): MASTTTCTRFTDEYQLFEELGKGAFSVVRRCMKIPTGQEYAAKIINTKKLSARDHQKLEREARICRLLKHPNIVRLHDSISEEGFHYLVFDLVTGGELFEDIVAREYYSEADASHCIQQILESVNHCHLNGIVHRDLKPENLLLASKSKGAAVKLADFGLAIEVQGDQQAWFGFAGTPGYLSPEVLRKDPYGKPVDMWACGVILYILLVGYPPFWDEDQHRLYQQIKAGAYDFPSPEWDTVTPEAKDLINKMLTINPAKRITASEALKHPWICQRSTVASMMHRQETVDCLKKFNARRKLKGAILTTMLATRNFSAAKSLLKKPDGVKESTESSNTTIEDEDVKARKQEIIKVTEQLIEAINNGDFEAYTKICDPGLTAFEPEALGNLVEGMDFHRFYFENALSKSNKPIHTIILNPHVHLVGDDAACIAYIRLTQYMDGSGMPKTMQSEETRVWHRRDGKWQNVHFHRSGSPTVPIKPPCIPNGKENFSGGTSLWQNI
Chain of Protein kinase C beta type (Homo sapiens) (P05771 2-671 limits assumed): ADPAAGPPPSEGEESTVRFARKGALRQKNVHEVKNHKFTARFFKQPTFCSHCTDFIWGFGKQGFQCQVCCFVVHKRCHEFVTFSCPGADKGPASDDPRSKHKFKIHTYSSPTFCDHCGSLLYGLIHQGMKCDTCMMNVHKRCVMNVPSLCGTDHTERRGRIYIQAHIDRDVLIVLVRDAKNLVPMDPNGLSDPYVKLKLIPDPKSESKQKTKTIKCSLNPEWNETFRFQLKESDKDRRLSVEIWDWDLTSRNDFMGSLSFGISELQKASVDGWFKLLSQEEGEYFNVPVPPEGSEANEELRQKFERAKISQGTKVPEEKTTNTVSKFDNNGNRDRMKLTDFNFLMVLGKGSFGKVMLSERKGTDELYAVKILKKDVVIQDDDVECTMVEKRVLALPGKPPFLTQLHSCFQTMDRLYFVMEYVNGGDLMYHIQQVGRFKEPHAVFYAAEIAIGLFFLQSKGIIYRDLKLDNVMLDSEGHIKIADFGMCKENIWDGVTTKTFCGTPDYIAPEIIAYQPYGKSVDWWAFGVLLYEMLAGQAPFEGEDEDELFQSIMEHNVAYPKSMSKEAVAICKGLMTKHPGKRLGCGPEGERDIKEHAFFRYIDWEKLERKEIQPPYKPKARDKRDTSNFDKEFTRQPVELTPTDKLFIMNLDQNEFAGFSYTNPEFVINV
Chain of Tyrosine-protein kinase Lck (Homo sapiens) (P06239 2-509 limits assumed): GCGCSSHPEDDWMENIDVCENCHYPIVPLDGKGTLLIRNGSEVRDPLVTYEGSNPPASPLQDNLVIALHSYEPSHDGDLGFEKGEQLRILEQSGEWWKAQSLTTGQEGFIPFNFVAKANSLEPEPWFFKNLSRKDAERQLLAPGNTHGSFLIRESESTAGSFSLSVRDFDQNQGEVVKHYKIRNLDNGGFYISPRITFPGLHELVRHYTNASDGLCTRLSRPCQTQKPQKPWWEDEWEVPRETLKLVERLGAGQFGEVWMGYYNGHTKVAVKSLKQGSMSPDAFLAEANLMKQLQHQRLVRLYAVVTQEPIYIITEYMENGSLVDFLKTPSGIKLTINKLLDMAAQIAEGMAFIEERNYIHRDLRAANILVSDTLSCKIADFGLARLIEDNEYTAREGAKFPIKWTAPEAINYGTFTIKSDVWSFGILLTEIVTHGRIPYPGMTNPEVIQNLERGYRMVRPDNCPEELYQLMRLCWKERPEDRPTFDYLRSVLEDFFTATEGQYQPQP
Chain of Ribosomal protein S6 kinase alpha-1 (Homo sapiens) (Q15418 whole entry): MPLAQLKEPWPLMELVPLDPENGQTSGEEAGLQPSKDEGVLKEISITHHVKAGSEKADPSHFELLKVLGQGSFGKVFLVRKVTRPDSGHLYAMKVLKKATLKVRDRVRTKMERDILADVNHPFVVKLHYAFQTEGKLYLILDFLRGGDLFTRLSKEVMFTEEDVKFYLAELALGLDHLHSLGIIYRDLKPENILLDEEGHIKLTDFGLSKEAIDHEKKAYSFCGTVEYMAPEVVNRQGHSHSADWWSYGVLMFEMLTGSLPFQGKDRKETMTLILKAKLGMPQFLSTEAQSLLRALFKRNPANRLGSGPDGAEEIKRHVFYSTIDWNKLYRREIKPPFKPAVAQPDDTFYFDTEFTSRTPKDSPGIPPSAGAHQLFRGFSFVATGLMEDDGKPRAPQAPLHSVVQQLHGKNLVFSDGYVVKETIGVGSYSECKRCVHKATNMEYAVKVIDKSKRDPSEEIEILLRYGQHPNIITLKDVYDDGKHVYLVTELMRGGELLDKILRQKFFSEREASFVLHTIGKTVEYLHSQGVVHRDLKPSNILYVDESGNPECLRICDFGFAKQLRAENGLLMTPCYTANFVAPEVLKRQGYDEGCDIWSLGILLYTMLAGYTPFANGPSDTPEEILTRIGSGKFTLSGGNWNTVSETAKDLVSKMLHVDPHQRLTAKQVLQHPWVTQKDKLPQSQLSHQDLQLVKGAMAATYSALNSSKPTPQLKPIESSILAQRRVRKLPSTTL

For `Cn1cc(-c2n[nH]c3ccc(NCc4cc(F)ccc4S(C)(=O)=O)cc23)cn1`, the inhibition [1] was 5%, the inhibition [2] was 5% and the inhibition (Homo sapiens) was -8%. The “Cp(f)” value (Rattus norvegicus [3]) was 70.9 nM, the inhibition [4] was 7% and the inhibition [5] was 0%. The “Cp(f)” value (Rattus norvegicus [6]) was 4.7 nM, the “Drug uptake(free)” value [7] was “Bld” and the inhibition [8] was 3%. It also gave a Papp A→B at 0.5 h, 50 µM [9] of 15.2 ×10⁻⁶ cm/s, a Cmax [10] of 161 nM and an inhibition [11] of -6%. It also gave a CLint scaled [12] of 127 mL/min/kg.
